Test results as given in BindingDB's records for doi:10.1016/j.bmc.2019.115193 (Stanford University, 2020).

Experiment: Inhibition of human DYRK1A transfected in HEK293T cells co-transfected with Renilla plasmid, pGL3-NFAT and NFATc1 assessed as derepression of NFAT-dependent luciferase activity measured after 48 hrs by luciferase assay

EC50: 1530 nM
SMILES: CCOC(=O)c1cnc2ccc(-c3ccnc(C)c3)nc2c1N[C@H]1CC[C@H](CN(C)C)CC1
